Tested on: Mycobacterium avium
Assay: Growth index for Mycobacterium avium sub species paratuberculosis was measured relative to mycobactin J
Assay type: functional

Row | SMILES | Growth Index
1 | CCCCC/C=C/C(=O)N(O)CCCCCCNC(=O)CC(O)(CC(=O)NCCCCCCN(O)C(=O)/C=C/CCCCC)C(=O)O | 0.95
2 | CCCCC/C=C/C(=O)N(O)CCCCCNC(=O)CC(O)(CC(=O)NCCCCCN(O)C(=O)/C=C/CCCCC)C(=O)O | 0.96
3 | CCCCC/C=C/C(=O)N(O)CCCCCCNC(=O)CC1(O)CC(=O)N(CCCCCCN(O)C(=O)/C=C/CCCCC)C1=O (stereo unspecified) | 1.01
4 | CCCCCCCCCCCCC/C=C/C(=O)N(O)CCCC[C@H](NC(=O)[C@@H]1CCC(c2ccccc2O)=N1)C(=O)OC(C(C)C)C(C)C(=O)N[C@H]1CCCCN(O)C1=O (stereo partly specified) | 1
5 | CCCCC/C=C/C(=O)N(O)CCCCCNC(=O)CC1(O)CC(=O)N(CCCCCN(O)C(=O)/C=C/CCCCC)C1=O (stereo unspecified) | 1.17
6 | CC(=O)N(O)CCCCCNC(=O)CCC(=O)N(O)CCCCCNC(=O)CCC(=O)N(O)CCCCCN [DEFEROXAMINE] | 1.09
